Measured values taken from US8278304B2, “Substituted 4-hydroxypyrimidine-5-carboxamides” (Merck Sharp & Dohme Corp., priority 2008, dated 2012).
Counter-ions that a name gives are not always drawn.

Each compound was assayed against T1, PHD2 (Homo sapiens, UniProt Q9GZT9) (assay: PHD2 / HIF-1α peptide hydroxylation assay, time resolved fluorescence (VHL complex detection)). Conditions: FLAG-tagged full length PHD2; 0.2 μM 2-oxoglutarate, 0.5 μM HIF-1α peptide; read-out: PHD2 Activity (PHD2 binding activity expressed as IC50 (nM)).
T1 construct: FLAG-tagged full length PHD2 expressed in and purified from baculovirus-infected Sf9 cells; FLAG; made in house; host or cells: baculovirus-infected Sf9 cells
T1 sequence (Q9GZT9 whole entry): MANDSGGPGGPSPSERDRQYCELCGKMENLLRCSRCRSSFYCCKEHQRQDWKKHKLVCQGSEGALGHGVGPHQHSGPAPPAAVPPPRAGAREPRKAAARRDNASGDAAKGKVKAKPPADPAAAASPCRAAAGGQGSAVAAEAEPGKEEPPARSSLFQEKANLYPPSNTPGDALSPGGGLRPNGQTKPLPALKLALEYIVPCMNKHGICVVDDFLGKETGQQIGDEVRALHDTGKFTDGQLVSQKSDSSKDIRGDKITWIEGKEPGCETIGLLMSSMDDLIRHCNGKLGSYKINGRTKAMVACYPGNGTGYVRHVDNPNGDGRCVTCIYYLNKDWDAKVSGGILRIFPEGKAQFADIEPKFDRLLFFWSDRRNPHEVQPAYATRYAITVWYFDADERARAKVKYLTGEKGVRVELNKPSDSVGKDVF
Format: biochemical
How it was run: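 Sf9-expressed FLAG-tagged full-length PHD2 (0.15 μg/ml) preincubated with compound 30 min at room temperature in Tris pH 7.4 buffer with 10 μM ferrous sulfate, 1 mM ascorbate and catalase. Reaction started with 0.2 μM 2-oxoglutarate and 0.5 μM biotinylated HIF-1α peptide (final); hydroxylation detected by time-resolved fluorescence via VHL complex binding.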

Structure (SMILES)	IC50
CC(C)(NC(=O)c1cnc(-c2cnccn2)nc1O)c1ccccc1 [Example 19, 4-Hydroxy-N-(1-methyl-1-phenylethyl)-2-pyrazin-2-ylpyrimidine-5-carboxamide]	10 to 100 nM
Cc1ccc(Oc2ccc(CNC(=O)c3cnc(-n4cccn4)nc3O)cc2)cc1 [Example 97, 4-hydroxy-N-[4-(4-methylphenoxy)benzyl]-2-(1H-pyrazol-1-yl)pyrimidine-5-carboxamide]	≤ 10 nM
CC(O)c1ccc(C(NC(=O)c2cnc(-c3cccnn3)nc2O)c2ccc(Cl)cc2)cc1 (centres unmarked) [Example 179, N-{(4-chlorophenyl)[4-(1-hydroxyethyl)phenyl]methyl}-4-hydroxy-2-(pyridazin-3-yl)pyrimidine-5-carboxamide]	≤ 10 nM
O=C(NCc1cc(C(F)(F)F)cc(C(F)(F)F)c1)c1cnc(-n2cccn2)nc1O [Example 65, N-[3,5-bis(trifluoromethyl)benzyl]-4-hydroxy-2-(1H-pyrazol-1-yl)pyrimidine-5-carboxamide]	100 to 1000 nM
O=C(NCc1ccccc1Cl)c1cnc(-c2cccnn2)nc1O [Example 24, N-(2-chlorobenzyl)-4-hydroxy-2-pyridazin-3-ylpyrimidine-5-carboxamide]	10 to 100 nM
C[C@H](NC(=O)c1cnc(-n2cccn2)nc1O)C1CCCCC1 [Example 85, N-[(1S)-1-cyclohexylethyl]-4-hydroxy-2-(1H-pyrazol-1-yl)pyrimidine-5-carboxamide]	10 to 100 nM
COc1ccc(C(NC(=O)c2cnc(-c3cccnn3)nc2O)c2ccc(O)cc2)cc1 (single isomer, unassigned) [Example 157, 4-hydroxy-N-[(4-hydroxyphenyl)(4-methoxyphenyl)methyl]-2-(pyridazin-3-yl)pyrimidine-5-carboxamide]	≤ 10 nM
O=C(N[C@H](CO)c1ccccc1)c1cnc(-n2cccn2)nc1O [Example 122, 4-hydroxy-N-[(1S)-2-hydroxy-1-phenylethyl]-2-(1H-pyrazol-1-yl)pyrimidine-5-carboxamide]	10 to 100 nM
C[C@H](NC(=O)c1cnc(-n2cccn2)nc1O)c1ccc(Oc2ccccc2)cc1 [Example 129, 4-hydroxy-N-[(1S)-1-(4-phenoxyphenyl)ethyl]-2-(1H-pyrazol-1-yl)pyrimidine-5-carboxamide]	≤ 10 nM
O=C(NC(c1ccc(O)cc1)c1ccc(O)cc1)c1cnc(-c2cccnn2)nc1O [Example 6, N-[bis(4-hydroxyphenyl)methyl]-4-hydroxy-2-ylpyridazin-3-ylpyrimidine-5-carboxamide]	≤ 10 nM
COc1ccc(C(NC(=O)c2cnc(-c3cccnn3)nc2O)c2ccc(SC)cc2)cc1 (centres unmarked) [Example 178, 4-hydroxy-N-{(4-methoxyphenyl)[4-(methylsulfanyl)phenyl]methyl}-2-(pyridazin-3-yl)pyrimidine-5-carboxamide]	≤ 10 nM
O=C(NCc1ccc(-c2ccccc2)nc1)c1cnc(-n2cccn2)nc1O [Example 105, 4-Hydroxy-N-[(6-phenylpyridin-3-yl)methyl]-2-(1H-pyrazol-1-yl)pyrimidine-5-carboxamide]	≤ 10 nM
Cc1nc(-c2ncc(C(=O)NCc3ccc(-c4ccccc4)cc3)c(O)n2)cs1 [Example 30, N-(biphenyl-4-ylmethyl)-4-hydroxy-2-(2-methyl-1,3-thiazol-4-yl)pyrimidine-5-carboxamide]	10 to 100 nM
COc1ccc(C(NC(=O)c2cnc(-n3cccn3)nc2O)c2cnccn2)cc1 (centres unmarked) [Example 166, 4-hydroxy-N-[(4-methoxyphenyl)(pyrazin-2-yl)methyl]-2-(1H-pyrazol-1-yl)pyrimidine-5-carboxamide]	≤ 10 nM
COc1ccc(C(NC(=O)c2cnc(-c3cccnn3)nc2O)c2ccc(C#N)cc2)cc1 (single isomer, unassigned) [Example 151, N-[(4-cyanophenyl)(4-methoxyphenyl)methyl]-4-hydroxy-2-(pyridazin-3-yl)pyrimidine-5-carboxamide]	≤ 10 nM
O=C(NCc1ccc(Cl)cc1Cl)c1cnc(-n2cccn2)nc1O [Example 51, N-(2,4-dichlorobenzyl)-4-hydroxy-2-(1H-pyrazol-1-yl)pyrimidine-5-carboxamide]	≤ 10 nM
N#Cc1ccc(C(NC(=O)c2cnc(-c3cccnn3)nc2O)C2CCCCC2)cc1 (single isomer, unassigned) [Example 163, N-[(4-cyanophenyl)(cyclohexyl)methyl]-4-hydroxy-2-(pyridazin-3-yl)pyrimidine-5-carboxamide]	≤ 10 nM
O=C(NC1(c2ccccc2)CCCCC1)c1cnc(-n2cccn2)nc1O [Example 94, 4-hydroxy-N-(1-phenylcyclohexyl)-2-(1H-pyrazol-1-yl)pyrimidine-5-carboxamide]	≤ 10 nM
C[C@H](NC(=O)c1cnc(-n2cccn2)nc1O)c1ccc(C#N)cc1 [Example 113, N-[(1S)-1-(4-cyanophenyl)ethyl]-4-hydroxy-2-(1H-pyrazol-1-yl)pyrimidine-5-carboxamide]	≤ 10 nM

Now from value to compound:

IC50	Structure (SMILES)
10 to 100 nM	COC(=O)c1ccc(CNC(=O)c2cnc(-n3cccn3)nc2O)cc1 [Example 103, methyl 4-[({[4-hydroxy-2-(1H-pyrazol-1-yl)pyrimidin-5-yl]carbonyl}amino)methyl]benzoate]
≤ 10 nM	C[C@H](NC(=O)c1cnc(-c2cccnn2)nc1O)c1ccc(-c2cccc3cnccc23)cc1 [Example 185, 4-hydroxy-N-[(1S)-1-(4-isoquinolin-5-ylphenyl)ethyl]-2-pyridazin-3-ylpyrimidine-5-carboxamide]
100 to 1000 nM	O=C(NCc1ccc(F)cc1)c1cnc(-c2ccccn2)nc1O [Example 7, N-(4-fluorobenzyl)-4-hydroxy-2-pyridin-2-ylpyrimidine-5-carboxamide]
≤ 10 nM	CC(C)CC(NC(=O)c1cnc(-c2cccnn2)nc1O)c1ccc(C#N)cc1 (single isomer, unassigned) [Example 158, N-[1-(4-cyanophenyl)-3-methylbutyl]-4-hydroxy-2-(pyridazin-3-yl)pyrimidine-5-carboxamide]
10 to 100 nM	O=C(NCc1ccc(C(F)(F)F)cn1)c1cnc(-n2cccn2)nc1O [Example 130, 4-hydroxy-2-(1H-pyrazol-1-yl)-N-{[5-(trifluoromethyl)pyridin-2-yl]methyl}pyrimidine-5-carboxamide]
≤ 10 nM	COc1ccc(C(NC(=O)c2cnc(-c3cccnn3)nc2O)c2ccc(C)nc2)cc1 (centres unmarked) [Example 114, 4-Hydroxy-N-[(4-methoxyphenyl)(6-methylpyridin-3-yl)methyl]-2-pyridazin-3-ylpyrimidine-5-carboxamide]
≤ 10 nM	COc1ccc(C(NC(=O)c2cnc(-c3cccnn3)nc2O)c2ccc(OC)cc2C)c(C)c1 [Example 175, N-[bis(4-methoxy-2-methylphenyl)methyl]-4-hydroxy-2-(pyridazin-3-yl)pyrimidine-5-carboxamide]
≤ 10 nM	Cc1csc(C(C)NC(=O)c2cnc(-n3cccn3)nc2O)n1 (centres unmarked) [Example 117, 4-hydroxy-N-[1-(4-methyl-1,3-thiazol-2-yl)ethyl]-2-(1H-pyrazol-1-yl)pyrimidine-5-carboxamide hydrochloride]
10 to 100 nM	Cc1nc(-c2ncc(C(=O)NCc3ccc(C(F)(F)F)cc3)c(O)n2)cs1 [Example 29, 4-Hydroxy-2-(2-methyl-1,3-thiazol-4-yl)-N-[4-(trifluoromethyl)benzyl]pyrimidine-5-carboxamide]
≤ 10 nM	O=C(N[C@H](c1ccccc1)[C@H](O)c1ccccc1)c1cnc(-c2cccnn2)nc1O [Example 139, 4-hydroxy-N-[(1R,2R)-2-hydroxy-1,2-diphenylethyl]-2-(pyridazin-3-yl)pyrimidine-5-carboxamide]
10 to 100 nM	Cc1nc(-c2ncc(C(=O)NC(c3ccccc3)c3ccccc3)c(O)n2)cs1 [Example 39, N-(diphenylmethyl)-4-hydroxy-2-(2-methyl-1,3-thiazol-4-yl)pyrimidine-5-carboxamide]
≤ 10 nM	O=C(NC1c2ccccc2-c2ccccc21)c1cnc(-n2cccn2)nc1O [Example 102, N-9H-fluoren-9-yl-4-hydroxy-2-(1H-pyrazol-1-yl)pyrimidine-5-carboxamide]
10 to 100 nM	Cc1ccc(CNC(=O)c2cnc(-n3cccn3)nc2O)cc1 [Example 77, 4-Hydroxy-N-(4-methylbenzyl)-2-(1H-pyrazol-1-yl)pyrimidine-5-carboxamide]
≤ 10 nM	C[C@H](NC(=O)c1cnc(-c2cccnn2)nc1O)c1ccc(Oc2ccccc2)cc1 [Example 137, 4-hydroxy-N-[(1S)-1-(4-phenoxyphenyl)ethyl]-2-(pyridazin-3-yl)pyrimidine-5-carboxamide]
≤ 10 nM	COc1ccc(C(NC(=O)c2cnc(-c3cccnn3)nc2O)c2ccc(C#N)cc2)c(OC)c1 (single isomer, unassigned) [Example 154, N-[(4-cyanophenyl)(2,4-dimethoxyphenyl)methyl]-4-hydroxy-2-(pyridazin-3-yl)pyrimidine-5-carboxamide]
10 to 100 nM	O=C(NCc1cnc(Cl)cn1)c1cnc(-n2cccn2)nc1O [Example 64, N-[(5-chloropyrazin-2-yl)methyl]-4-hydroxy-2-(1H-pyrazol-1-yl)pyrimidine-5-carboxamide]
≤ 10 nM	O=C(N[C@H](c1ccccc1)[C@@H](O)c1ccccc1)c1cnc(-n2cccn2)nc1O [Example 120, 4-hydroxy-N-[(1R,2S)-2-hydroxy-1,2-diphenylethyl]-2-(1H-pyrazol-1-yl)pyrimidine-5-carboxamide]
≤ 10 nM	COc1ccc(C(NC(=O)c2cnc(-c3cccnn3)nc2O)c2ccc(OC)cc2OC)c(OC)c1 [Example 174, N-[bis(2,4-dimethoxyphenyl)methyl]-4-hydroxy-2-(pyridazin-3-yl)pyrimidine-5-carboxamide]
10 to 100 nM	CC[C@@H](NC(=O)c1cnc(-c2csc(C)n2)nc1O)c1ccccc1 [Example 36, 4-Hydroxy-2-(2-methyl-1,3-thiazol-4-yl)-N-[(1R)-1-phenylpropyl]pyrimidine-5-carboxamide]
